In BindingDB's records for doi:10.1111/j.1476-5381.1996.tb15304.x (Smithkline Beecham Pharmaceuticals, 1996):

What was measured:
[1] = molecular target: T1, Adrenergic alpha2 receptor (Mesocricetus auratus, UniProt Q60533)
T1 sequence (Q60533 whole entry): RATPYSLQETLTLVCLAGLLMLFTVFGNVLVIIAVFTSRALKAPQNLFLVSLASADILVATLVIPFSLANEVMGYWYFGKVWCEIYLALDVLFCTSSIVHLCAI

[2] = molecular target: 5-hydroxytryptamine receptor 4 (Rattus norvegicus, UniProt Q62758)
[3] = molecular target: 5-hydroxytryptamine receptor 7 (Rattus norvegicus, UniProt P32305)
Chain of 5-hydroxytryptamine receptor 7 (Rattus norvegicus, UniProt P32305) (P32305 whole entry): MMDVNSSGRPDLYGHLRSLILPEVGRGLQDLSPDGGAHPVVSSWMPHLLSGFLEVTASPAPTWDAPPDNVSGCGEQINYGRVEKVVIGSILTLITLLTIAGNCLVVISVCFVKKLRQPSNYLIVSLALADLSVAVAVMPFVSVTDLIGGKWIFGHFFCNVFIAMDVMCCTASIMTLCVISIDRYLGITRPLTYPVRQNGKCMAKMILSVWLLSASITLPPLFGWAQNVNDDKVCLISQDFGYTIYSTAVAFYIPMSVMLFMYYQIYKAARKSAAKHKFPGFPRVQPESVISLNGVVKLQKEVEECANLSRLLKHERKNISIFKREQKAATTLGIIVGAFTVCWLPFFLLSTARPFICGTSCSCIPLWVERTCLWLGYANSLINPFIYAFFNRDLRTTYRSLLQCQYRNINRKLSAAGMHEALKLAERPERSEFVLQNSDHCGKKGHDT

D(1A) dopamine receptor = D(1A) dopamine receptor (Homo sapiens, UniProt P21728)
Chain of D(1A) dopamine receptor (P21728 whole entry): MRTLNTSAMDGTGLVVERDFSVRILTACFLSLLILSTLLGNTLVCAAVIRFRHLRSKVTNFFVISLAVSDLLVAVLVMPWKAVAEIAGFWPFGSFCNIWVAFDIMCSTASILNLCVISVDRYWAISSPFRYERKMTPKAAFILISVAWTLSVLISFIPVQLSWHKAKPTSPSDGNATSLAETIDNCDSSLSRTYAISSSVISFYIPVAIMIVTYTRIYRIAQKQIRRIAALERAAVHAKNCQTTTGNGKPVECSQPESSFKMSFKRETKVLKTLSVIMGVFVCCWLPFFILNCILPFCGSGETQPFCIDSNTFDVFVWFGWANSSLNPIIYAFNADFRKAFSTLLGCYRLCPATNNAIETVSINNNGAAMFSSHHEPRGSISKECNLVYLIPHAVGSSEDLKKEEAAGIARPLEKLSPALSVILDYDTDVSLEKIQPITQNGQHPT

[4] = molecular target: T2, 5-hydroxytryptamine receptor 2C (Homo sapiens, UniProt P28335)
T2 sequence (P28335 whole entry): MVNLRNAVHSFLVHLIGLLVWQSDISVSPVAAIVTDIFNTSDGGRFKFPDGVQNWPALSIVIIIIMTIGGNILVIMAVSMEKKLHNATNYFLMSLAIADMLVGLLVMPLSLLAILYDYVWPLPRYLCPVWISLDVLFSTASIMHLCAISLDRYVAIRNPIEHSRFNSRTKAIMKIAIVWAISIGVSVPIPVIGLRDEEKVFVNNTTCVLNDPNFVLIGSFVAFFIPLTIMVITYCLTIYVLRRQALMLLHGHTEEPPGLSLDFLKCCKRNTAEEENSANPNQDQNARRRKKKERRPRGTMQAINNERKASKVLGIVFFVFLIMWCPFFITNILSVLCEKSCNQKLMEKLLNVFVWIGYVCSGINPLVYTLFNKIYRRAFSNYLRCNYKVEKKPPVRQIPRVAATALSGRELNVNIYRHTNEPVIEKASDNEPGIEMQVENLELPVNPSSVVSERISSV

[5] = molecular target: 5-hydroxytryptamine receptor 1E (Homo sapiens, UniProt P28566)
Chain of 5-hydroxytryptamine receptor 1E (P28566 whole entry): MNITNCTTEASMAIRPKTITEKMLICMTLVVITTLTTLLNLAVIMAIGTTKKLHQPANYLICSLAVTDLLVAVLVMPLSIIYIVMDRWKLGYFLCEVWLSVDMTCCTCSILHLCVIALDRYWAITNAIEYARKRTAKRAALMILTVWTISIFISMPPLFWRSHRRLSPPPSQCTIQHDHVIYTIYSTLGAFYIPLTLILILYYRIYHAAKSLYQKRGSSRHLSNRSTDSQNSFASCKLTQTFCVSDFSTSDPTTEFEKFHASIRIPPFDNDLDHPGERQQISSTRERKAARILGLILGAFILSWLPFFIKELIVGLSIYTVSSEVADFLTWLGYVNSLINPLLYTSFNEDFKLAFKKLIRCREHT

[6] = molecular target: T3, 5-hydroxytryptamine receptor 1F (Homo sapiens, UniProt P30939)
T3 sequence (P30939 whole entry): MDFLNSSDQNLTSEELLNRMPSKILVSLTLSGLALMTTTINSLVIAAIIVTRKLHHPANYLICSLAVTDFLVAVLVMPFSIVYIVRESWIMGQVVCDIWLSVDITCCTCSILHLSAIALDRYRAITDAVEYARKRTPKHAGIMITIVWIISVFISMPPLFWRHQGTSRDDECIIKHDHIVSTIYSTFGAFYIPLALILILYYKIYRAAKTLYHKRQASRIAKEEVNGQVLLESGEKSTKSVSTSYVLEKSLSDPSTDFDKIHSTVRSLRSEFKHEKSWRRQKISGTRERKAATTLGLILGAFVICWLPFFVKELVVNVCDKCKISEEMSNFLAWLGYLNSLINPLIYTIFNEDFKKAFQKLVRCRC

[7] = molecular target: 5-hydroxytryptamine receptor 1B (Homo sapiens, UniProt P28222)
Chain of 5-hydroxytryptamine receptor 1B (P28222 whole entry): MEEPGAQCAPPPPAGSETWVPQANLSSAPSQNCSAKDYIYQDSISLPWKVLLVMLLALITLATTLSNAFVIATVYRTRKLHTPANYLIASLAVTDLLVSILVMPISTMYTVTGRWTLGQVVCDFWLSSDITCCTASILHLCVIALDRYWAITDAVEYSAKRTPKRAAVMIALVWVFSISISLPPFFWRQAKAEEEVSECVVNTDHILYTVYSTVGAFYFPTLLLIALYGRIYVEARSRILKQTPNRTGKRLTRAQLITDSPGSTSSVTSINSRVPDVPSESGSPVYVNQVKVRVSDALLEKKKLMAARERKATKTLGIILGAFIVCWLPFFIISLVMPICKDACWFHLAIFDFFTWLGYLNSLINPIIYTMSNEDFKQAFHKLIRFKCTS

[8] = molecular target: T4, Solute carrier family 22 member 1 (Rattus norvegicus, UniProt Q63089)
T4 sequence (Q63089 whole entry): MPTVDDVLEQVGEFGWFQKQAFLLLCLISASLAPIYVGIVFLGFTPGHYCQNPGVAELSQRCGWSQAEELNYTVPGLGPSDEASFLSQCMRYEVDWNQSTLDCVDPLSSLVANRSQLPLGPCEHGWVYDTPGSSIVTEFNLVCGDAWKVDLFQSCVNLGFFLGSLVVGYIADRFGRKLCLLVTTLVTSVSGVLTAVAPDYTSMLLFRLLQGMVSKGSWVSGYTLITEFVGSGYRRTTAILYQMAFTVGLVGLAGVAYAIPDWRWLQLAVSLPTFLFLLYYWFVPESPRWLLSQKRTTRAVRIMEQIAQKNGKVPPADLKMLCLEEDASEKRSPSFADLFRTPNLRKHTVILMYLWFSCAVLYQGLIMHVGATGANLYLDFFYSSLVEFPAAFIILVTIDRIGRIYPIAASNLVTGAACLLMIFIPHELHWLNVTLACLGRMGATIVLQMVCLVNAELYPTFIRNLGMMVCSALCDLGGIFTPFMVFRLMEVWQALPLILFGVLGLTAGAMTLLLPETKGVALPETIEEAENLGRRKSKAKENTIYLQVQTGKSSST

[9] = molecular target: Beta-2 adrenergic receptor (Mus musculus, UniProt P18762)
Chain of Beta-2 adrenergic receptor (P18762 whole entry): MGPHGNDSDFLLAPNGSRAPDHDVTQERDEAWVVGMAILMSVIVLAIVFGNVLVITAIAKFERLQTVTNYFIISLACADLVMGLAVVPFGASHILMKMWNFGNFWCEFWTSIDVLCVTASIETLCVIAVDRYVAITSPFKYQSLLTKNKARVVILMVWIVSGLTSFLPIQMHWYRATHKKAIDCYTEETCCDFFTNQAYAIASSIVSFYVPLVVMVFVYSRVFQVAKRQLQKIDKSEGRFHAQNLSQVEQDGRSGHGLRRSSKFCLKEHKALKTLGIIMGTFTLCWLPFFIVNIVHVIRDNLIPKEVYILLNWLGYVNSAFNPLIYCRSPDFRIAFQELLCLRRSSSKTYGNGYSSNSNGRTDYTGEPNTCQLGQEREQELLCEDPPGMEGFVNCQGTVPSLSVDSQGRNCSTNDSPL

[10] = molecular target: T5, 5-hydroxytryptamine receptor 2C (Rattus norvegicus, UniProt P08909)
T5 sequence (P08909 whole entry): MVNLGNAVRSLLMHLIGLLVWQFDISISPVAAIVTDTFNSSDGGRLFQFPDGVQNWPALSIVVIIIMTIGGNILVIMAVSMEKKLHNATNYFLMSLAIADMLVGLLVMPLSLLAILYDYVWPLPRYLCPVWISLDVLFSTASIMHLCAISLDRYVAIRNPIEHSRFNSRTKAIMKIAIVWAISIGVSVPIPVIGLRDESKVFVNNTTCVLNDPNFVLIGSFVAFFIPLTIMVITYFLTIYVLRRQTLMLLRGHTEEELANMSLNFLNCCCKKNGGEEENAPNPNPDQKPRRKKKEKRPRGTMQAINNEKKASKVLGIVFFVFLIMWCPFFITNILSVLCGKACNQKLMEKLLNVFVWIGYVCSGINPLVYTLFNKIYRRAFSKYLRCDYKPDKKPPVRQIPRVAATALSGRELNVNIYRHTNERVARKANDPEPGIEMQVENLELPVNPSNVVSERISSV

[11] = molecular target: 5-hydroxytryptamine receptor 2A (Rattus norvegicus, UniProt P14842)
Chain of 5-hydroxytryptamine receptor 2A (P14842 whole entry): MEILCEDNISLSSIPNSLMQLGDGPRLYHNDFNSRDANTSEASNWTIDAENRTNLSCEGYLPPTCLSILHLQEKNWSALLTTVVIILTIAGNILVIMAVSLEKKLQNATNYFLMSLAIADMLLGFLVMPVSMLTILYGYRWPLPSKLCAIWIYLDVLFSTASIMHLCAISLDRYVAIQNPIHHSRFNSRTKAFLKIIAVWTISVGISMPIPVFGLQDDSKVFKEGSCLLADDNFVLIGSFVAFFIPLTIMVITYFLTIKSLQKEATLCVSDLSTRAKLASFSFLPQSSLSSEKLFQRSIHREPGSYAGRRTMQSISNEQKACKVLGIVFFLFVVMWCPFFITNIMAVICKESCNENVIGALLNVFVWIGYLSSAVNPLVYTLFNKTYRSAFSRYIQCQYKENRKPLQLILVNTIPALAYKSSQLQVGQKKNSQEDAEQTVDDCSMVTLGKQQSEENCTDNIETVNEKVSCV

D(2) dopamine receptor = D(2) dopamine receptor (Homo sapiens, UniProt P14416)
Chain of D(2) dopamine receptor (P14416 whole entry): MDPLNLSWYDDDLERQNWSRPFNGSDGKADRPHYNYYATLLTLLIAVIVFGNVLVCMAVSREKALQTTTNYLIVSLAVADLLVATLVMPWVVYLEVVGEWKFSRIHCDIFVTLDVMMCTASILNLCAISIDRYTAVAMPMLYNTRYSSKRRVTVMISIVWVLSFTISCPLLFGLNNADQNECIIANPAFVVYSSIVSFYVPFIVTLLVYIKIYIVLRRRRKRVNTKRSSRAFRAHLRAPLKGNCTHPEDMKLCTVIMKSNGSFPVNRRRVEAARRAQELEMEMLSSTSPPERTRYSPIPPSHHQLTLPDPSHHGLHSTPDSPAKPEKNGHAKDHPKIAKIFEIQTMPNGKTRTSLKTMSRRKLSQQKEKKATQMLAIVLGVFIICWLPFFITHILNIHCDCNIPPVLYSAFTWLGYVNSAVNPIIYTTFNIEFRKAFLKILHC

Histamine H2 receptor = Histamine H2 receptor (Mus musculus, UniProt P97292)
Chain of Histamine H2 receptor (P97292 whole entry): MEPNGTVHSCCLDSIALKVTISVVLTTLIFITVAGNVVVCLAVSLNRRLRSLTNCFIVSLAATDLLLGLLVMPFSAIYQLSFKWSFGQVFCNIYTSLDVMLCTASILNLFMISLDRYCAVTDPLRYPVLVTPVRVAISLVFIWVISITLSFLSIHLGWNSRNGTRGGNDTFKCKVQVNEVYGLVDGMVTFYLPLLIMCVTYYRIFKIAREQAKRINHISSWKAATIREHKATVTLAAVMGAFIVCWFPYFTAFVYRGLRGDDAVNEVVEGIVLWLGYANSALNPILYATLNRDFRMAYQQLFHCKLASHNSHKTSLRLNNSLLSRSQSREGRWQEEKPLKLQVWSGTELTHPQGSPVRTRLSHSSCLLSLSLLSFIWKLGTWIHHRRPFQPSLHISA

[12] = molecular target: T6, 5-hydroxytryptamine receptor 3A (Rattus norvegicus, UniProt P35563)
T6 sequence (P35563 whole entry): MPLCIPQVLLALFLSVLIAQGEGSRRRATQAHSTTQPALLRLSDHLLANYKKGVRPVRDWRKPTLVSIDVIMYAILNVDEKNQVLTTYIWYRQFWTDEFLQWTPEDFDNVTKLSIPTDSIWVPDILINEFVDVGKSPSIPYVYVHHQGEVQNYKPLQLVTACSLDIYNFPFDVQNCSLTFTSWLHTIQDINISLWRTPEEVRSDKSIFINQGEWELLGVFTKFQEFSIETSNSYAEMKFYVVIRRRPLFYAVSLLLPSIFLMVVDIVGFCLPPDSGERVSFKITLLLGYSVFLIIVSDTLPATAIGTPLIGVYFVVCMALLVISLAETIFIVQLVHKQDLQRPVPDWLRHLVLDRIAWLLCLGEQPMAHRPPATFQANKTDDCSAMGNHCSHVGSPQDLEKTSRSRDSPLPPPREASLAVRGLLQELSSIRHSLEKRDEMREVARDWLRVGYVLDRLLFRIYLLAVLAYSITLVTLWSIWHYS

[13] = molecular target: Beta-1 adrenergic receptor (Homo sapiens, UniProt P08588)
Chain of Beta-1 adrenergic receptor (P08588 whole entry): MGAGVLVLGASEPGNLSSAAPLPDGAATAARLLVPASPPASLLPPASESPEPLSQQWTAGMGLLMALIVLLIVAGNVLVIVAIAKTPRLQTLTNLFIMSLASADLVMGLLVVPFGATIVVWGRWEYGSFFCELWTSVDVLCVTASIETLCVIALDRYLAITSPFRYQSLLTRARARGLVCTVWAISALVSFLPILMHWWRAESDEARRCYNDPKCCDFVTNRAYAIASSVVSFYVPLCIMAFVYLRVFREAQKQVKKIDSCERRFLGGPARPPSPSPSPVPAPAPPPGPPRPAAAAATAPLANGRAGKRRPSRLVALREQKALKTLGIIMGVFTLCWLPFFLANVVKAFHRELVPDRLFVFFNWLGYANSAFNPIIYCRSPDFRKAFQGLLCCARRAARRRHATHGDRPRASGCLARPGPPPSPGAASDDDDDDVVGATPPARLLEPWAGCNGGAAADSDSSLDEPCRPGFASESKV

[14] = molecular target: 5-hydroxytryptamine receptor 1D (Homo sapiens, UniProt P28221)
Chain of 5-hydroxytryptamine receptor 1D (P28221 whole entry): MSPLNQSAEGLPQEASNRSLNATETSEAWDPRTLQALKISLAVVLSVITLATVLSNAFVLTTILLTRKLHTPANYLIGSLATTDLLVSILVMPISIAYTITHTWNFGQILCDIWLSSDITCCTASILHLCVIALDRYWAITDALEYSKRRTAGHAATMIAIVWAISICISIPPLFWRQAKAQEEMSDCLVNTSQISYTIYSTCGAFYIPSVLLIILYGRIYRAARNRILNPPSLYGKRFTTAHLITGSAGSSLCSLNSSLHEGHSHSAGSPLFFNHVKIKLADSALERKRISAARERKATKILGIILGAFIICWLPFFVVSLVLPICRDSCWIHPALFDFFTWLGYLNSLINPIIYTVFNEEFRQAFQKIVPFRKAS

D(4) dopamine receptor = molecular target: T7, D(4) dopamine receptor (Homo sapiens, UniProt P21917)
T7 sequence (P21917 whole entry): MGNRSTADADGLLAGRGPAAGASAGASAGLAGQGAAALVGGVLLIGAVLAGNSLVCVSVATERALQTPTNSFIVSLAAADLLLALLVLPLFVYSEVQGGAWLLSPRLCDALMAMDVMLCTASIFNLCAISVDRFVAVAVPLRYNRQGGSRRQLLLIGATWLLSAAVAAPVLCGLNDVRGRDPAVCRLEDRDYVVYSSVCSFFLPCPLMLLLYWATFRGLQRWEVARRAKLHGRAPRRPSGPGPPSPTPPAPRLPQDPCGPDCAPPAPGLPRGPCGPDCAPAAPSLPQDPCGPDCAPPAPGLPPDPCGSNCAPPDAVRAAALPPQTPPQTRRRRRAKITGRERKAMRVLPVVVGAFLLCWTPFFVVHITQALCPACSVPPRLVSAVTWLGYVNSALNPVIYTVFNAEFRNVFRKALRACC

[15] = molecular target: 5-hydroxytryptamine receptor 7 (Homo sapiens, UniProt P34969)
Chain of 5-hydroxytryptamine receptor 7 (Homo sapiens, UniProt P34969) (P34969 whole entry): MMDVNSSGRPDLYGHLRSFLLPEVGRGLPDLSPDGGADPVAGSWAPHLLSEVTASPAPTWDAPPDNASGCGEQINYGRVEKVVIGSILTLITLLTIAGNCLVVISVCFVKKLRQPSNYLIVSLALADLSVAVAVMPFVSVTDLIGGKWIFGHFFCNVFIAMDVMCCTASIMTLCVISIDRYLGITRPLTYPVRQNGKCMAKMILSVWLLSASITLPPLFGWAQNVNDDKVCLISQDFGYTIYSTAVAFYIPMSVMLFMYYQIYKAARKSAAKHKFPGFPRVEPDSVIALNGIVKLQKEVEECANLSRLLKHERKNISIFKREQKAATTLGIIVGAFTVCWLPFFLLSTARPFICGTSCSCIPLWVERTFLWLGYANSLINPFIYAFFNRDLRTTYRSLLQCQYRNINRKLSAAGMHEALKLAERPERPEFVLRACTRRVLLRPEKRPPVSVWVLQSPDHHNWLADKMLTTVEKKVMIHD

**Q.** How did the Ki [1] turn out when `CC(N)Cc1c[nH]c2ccc(OCc3cccs3)cc12` (centres undefined) [NSC_5311036] was run?
**A.** The Ki was > 10 µM.

**Q.** And the Ki [2]?
**A.** The Ki was > 10 µM.

**Q.** And the Ki [3]?
**A.** Its Ki is 1 µM.

**Q.** What about the Ki (D(1A) dopamine receptor) of the same compound?
**A.** Its Ki is > 10 µM.

**Q.** What about the Ki [4] of the same compound?
**A.** Its Ki is 0.501 µM.

**Q.** And the Ki [5]?
**A.** Its Ki is 3.16 µM.

**Q.** And the Ki [6]?
**A.** Its Ki is 7.94 µM.

**Q.** And the Ki [7]?
**A.** Its Ki is 0.126 µM.

**Q.** And the Ki [8]?
**A.** The Ki was > 10 µM.

**Q.** And the Ki [9]?
**A.** The Ki was > 10 µM.

**Q.** And the Ki [10]?
**A.** Its Ki is 0.126 µM.

**Q.** And the Ki [11]?
**A.** Its Ki is 0.251 µM.

**Q.** What about the Ki (D(2) dopamine receptor) of the same compound?
**A.** Its Ki is > 10 µM.

**Q.** What about the Ki (Histamine H2 receptor) of the same compound?
**A.** Its Ki is > 10 µM.

**Q.** What about the Ki [12] of the same compound?
**A.** Its Ki is 0.316 µM.

**Q.** And the Ki [13]?
**A.** The Ki was > 10 µM.

**Q.** What about the Ki [14] of the same compound?
**A.** Its Ki is 0.631 µM.

**Q.** And the Ki (D(4) dopamine receptor)?
**A.** Its Ki is > 10 µM.

**Q.** And the Ki [15]?
**A.** Its Ki is 3.16 µM.
